The values below come from patent US6630485B2, “p38 map kinase inhibitors” (Syntex (U.S.A.) LLC, priority 1997, dated 2003).

Bounds are passed on as bounds.

Series [1] relates to TNF-α. Put plainly: Inhibition of LPS-induced TNF-α production in mice, in vivo assay. The following applies: female BALB/c mice, dosed orally at 30 mg, 30 min before 20 μg LPS i.p., serum TNF-α after 1.5 h. How it is done: The ability of the compounds of this invention to inhibit the TNF-α release, in vivo, was determined using a minor modification of the methods described in described in Zanetti, G.; Heumann, D., et. al., “Cytokine production after intravenous or peritoneal Gram-negative bacterial challenge in mice,” J. Immunol., 148, 1890, (1992) and Sekut, L., Menius, J. A., et. al., “Evaluation of the significance of elevated levels of systemic and localized tumor necrosis factor in different animal models of inflammation,” J. Lab. Clin. Med., 124, 813, (1994).
Female BALB/c mice weighing 18-21 grams (Charles River, Hollister, Calif.) were acclimated for one week. Groups containing 8 […] each were dosed orally either with the test compounds dissolved in an aqueous vehicle containing 0.9% sodium chloride, 0.5% sodium carboxymethyl-cellulose, 0.4% polysorbate 80, 0.9% benzyl alcohol (CMC vehicle) or only vehicle (control group). After 30 min., the mice were injected intraperitoneally with 20 μg of LPS (Sigma, St. Louis, Mo.). After 1.5 h, the mice were sacrificed by CO2 inhalation and blood was harvested by cardiocentesis. Blood was clarified by centrifugation at 15,600×g for 5 min., and sera were transferred to clean tubes and frozen at −20° C. until analyzed for TNF-α by ELISA assay (Biosource International, Camarillo, Calif.) following the manufacturer's protocol.
The TNF-α inhibitory activity of test materials, i.e., the measure of the TNF-α content in the test group relative to the vehicle treated group (control group) at 30 mg was: […]

The target of the next series is T1, p38 MAP kinase (Homo sapiens, UniProt Q16539).
T1 construct: made in house; host or cells: E. coli
T1 sequence (Q16539 whole entry): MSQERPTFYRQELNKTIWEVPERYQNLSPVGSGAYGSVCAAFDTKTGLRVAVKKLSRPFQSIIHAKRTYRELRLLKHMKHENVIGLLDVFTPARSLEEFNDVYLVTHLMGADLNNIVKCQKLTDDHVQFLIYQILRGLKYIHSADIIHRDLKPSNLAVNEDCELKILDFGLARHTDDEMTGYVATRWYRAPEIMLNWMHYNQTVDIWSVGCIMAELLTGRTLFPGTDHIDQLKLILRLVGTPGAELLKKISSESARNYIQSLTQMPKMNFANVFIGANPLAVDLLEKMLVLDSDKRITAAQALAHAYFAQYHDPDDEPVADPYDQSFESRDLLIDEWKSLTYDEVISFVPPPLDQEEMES
Put plainly: Inhibition of p-38 (MAP) kinase, in vitro assay (33P transfer from γ-33P-ATP to Myelin Basic Protein). As to conditions: phosphorylated recombinant p38 MAP kinase, MBP substrate, 30° C., read-out: IC50 (concentration causing 50% inhibition of the p-38 enzyme). The format is biochemical. The method, then:
The p-38 MAP kinase inhibitory activity of compounds of this invention in vitro was determined by measuring the transfer of the γ-phosphate from γ-^33P-ATP by p-38 kinase to Myelin Basic Protein (MBP), using the a minor modification of the method described in Ahn, N. G.; et al. J. of Biol. Chem. Vol. 266(7), 4220-4227, (1991)
The phosphorylated form of the recombinant p38 MAP kinase was expressed with SEK-1 and MEKK in E. coli (see, Khokhlatchev, A. et al. J. of Biol. Chem. Vol. 272(17), 11057-11062, (1997) and then purified by affinity chromatography using a Nickel column.
The phosphorylated p38 MAP kinase was diluted in kinase buffer (20 mM 3-(N-morpholino)propanesulfonic acid, pH 7.2, 25 mM β-glycerol phosphate, 5 mM ethylene glycol-bis(beta-aminoethyl ether)-N,N,N′,N′-tetraacetic acid, 1 mM sodium vanadate, 1 mM dithiothreitol, 40 mM magnesium chloride). Test compound dissolved in DMSO or only DMSO (control) was added and the samples were incubated for 10 min. at 30° C. The kinase reaction was initiated by the addition of a substrate cocktail containing MBP and γ-^33P-ATP. After incubating for an additional 20 min. at 30° C., the reaction was terminated by adding 0.75% phosphoric acid. The phosphorylated MBP was then separated from the residual γ-^33P-ATP using a phosphocellulose membrane (Millipore, Bedfrod, Mass.) and quantitated using a scintillation counter (Packard, Meriden, Conn.).
The p-38 inhibitory activities (expressed as IC50, the concentration causing 50% inhibition of the p-38 enzyme being assayed) of some compounds of the invention is: […]

Series [2] deals with TNF-α. Briefly: Inhibition of LPS-induced TNF-α production in THP1 cells, in vitro assay (ELISA). The format is cell-based. The following applies: Homo sapiens; THP-1 cells, LPS 0.5 μg/ml, 2 h; read-out: IC50 (half-maximal reduction in 450 nm absorbance, TNF-α ELISA). How it is done: The ability of the compounds of this invention to inhibit the TNF-α release was determined using a minor modification of the methods described in described in Blifeld, C. et al. Transplantation, Vol. 51(2), 498-503, (1991).
THP-1 cells were suspended in culture medium [RPMI (Gibco-BRL, Gailthersburg, Md.) containing 15% fetal bovine serum, 0.02 mM 2-mercaptoethanol], at a concentration of 2.5×10^6 cells/ml and then plated in 96 well plate (0.2 ml aliquots in each well). Test compounds were dissolved DMSO and then diluted with the culture medium such that the final DMSO concentration was 5%. 20 μl aliquots of test solution or only medium with DMSO (control) were added to each well. The cells were incubated for 30 min., at 37° C. LPS (Sigma, St. Louis, Mo.) was added to the wells at a final concentration of 0.5 μg/ml, and cells were incubated for an additional 2 h. At the end of the incubation period, culture supernatants were collected and the amount of TNF-α present was determined using an ELISA assay as described below.
The amount of human TNF-α present was determined by a specific trapping ELISA assay using two anti-TNF-α antibodies (2TNF-H22 and 2TNF-H34) described in Reimund, J. M., et al. GUT Vol. 39(5), 684-689 (1996).
Polystyrene 96-well plates were coated with 50 μl per well of antibody 2TNF-H22 in PBS (10 μg/ml) and incubated in a humidified chamber at 4° C. overnight. The plates were washed with PBS and then blocked with 5% nonfat-dry milk in PBS for 1 hour at room temperature and washed with 0.1% BSA (bovine serum albumin) in PBS.
TNF standards were prepared from a stock solution of human recombinant TNF-α (R&D Systems, Minneapolis, Minn.). The concentration of the standards in the assay began at 10 ng/ml followed by 6 half log serial dilution's.
25 μl aliquots of the above culture supernatants or TNF standards or only medium (control) were mixed with 25 μl aliquots of biotinylated monoclonal antibody 2TNF-H34 (2 μg/ml in PBS containing 0.1% BSA) and then added to each well. The samples were incubated for 2 h at room temperature with gentle shaking and then washed 3 times with 0.1% BSA in PBS. 50 μl of peroxidase-streptavidin (Zymed, S. San Francisco, Calif.) solution containing 0.416 μg/ml of peroxidase-streptavidin and 0.1% BSA in PBS was added to each well. The samples were incubated for an additional 1 h at room temperature and then washed 4 times with 0.1% BSA in PBS. 50 μl of O-phenylenediamine solution (1 μg/ml O-phenylene-diamine and 0.03% hydrogen peroxide in 0.2M citrate buffer pH 4.5) was added to each well and the samples were incubated in the dark for 30 min., at room temperature. Optical density of the sample and the reference were read at 450 nm and 650 nm, respectively. TNF-α levels were determined from a graph relating the optical density at 450 nm to the concentration used.
The IC50 value was defined as the concentration of the test compound corresponding to half-maximal reduction in 450 nm absorbance.
In general terms: ELISA stands for enzyme-linked immunosorbent assay.

The term melting point denotes the temperature of the solid-liquid transition.

In turn, `Fc1ccc(-c2c(-c3ccncc3)oc3cccnc23)cc1` [compound 101, 3-(4-Fluorophenyl)-2-(pyridin-4-yl)-furo[3,2-b]pyridine] yielded a melting point of 141 to 143 °C. Moreover, the “% Inhibition (TNF-α content in test group relative to vehicle treated group)” value in the series on TNF-α [1] was found to be 86%. Further, the IC50 on p38 MAP kinase is 85.5 nM.

In turn, `Fc1ccc(-c2c(-c3ccncc3)[nH]c3ccncc23)cc1` [compound 105, 3-(4-Fluorophenyl)-2-(pyridin-4-yl)-1H-pyrrolo[3,2-c]pyridine] had a melting point of 256 to 257 °C.

In the case of `N#CCCCn1c(-c2ccncc2)c(-c2ccc(F)cc2)c2nccnc21` [compound 108], the IC50 in the series with TNF-α [2] was 8830 nM; on p38 MAP kinase, 747 nM.

Molecule `Nc1nccc(-c2oc3cccnc3c2-c2ccc(F)cc2)n1` [compound 103, 2-(2-Aminopyrimidin-4-yl)-3-(4-fluorophenyl)-furo[3,2-b]pyridine] returned a melting point of 252.9 to 253.7 °C.

Take `Fc1ccc(-c2c(-c3ccncc3)[nH]c3cccnc23)cc1` [compound 6, 3-(4-Fluorophenyl)-2-(pyridin-4-yl)-1H-pyrrolo[3,2-b]pyridine]: the melting point was greater than 285 °C. In the series on TNF-α [1], the “% Inhibition (TNF-α content in test group relative to vehicle treated group)” value worked out at 68%.

`Fc1ccc(-c2c(-c3ccncc3)n(OCCN3CCCCC3)c3cccnc23)cc1` [compound 4, 3-(4-Fluorophenyl)-1-[2-(piperidin-1-yl)ethoxy]-2-(pyridin-4-yl)-1H-pyrrolo[3,2-b]pyridine] showed a melting point of 95.9 to 98.7 °C.

`COn1c(-c2ccncc2)c(-c2ccc(F)cc2)c2ncccc21` [compound 2, 3-(4-Fluorophenyl)-1-methoxy-2-(pyridin-4-yl)-1H-pyrrolo[3,2-b]pyridine]: the melting point was 168 to 171.5 °C. Moreover, the “% Inhibition (TNF-α content in test group relative to vehicle treated group)” value with TNF-α [1] was 75%. Moreover, the IC50 with TNF-α [2] worked out at 460 nM. In addition, at p38 MAP kinase, the IC50 came out at 68 nM.

With `OCCNc1cc(-c2[nH]c3nccnc3c2-c2ccc(F)cc2)ccn1` [compound 112], the figures for the IC50 in the series on TNF-α [2] and on p38 MAP kinase were 241 nM and 34.4 nM, respectively.

`Fc1ccc(-c2c(-c3ccncc3)n(CCN3CCCCC3)c3cccnc23)cc1` [compound 9, 3-(4-Fluorophenyl)-1-[2-(piperidin-1-yl)ethyl]-2-(pyridin-4-yl)-1H-pyrrolo[3,2-b]pyridine] gave a melting point of 148.1 to 153.3 °C. Further, the IC50 with TNF-α [2] was determined as 300 nM.

In turn, `CCn1c(-c2ccncc2)c(-c2ccc(F)cc2)c2ncccc21` [compound 7, 1-Ethyl-3-(4-fluorophenyl)-2-(pyridin-4-yl)-1H-pyrrolo[3,2-b]pyridine] had a melting point of 204 to 206 °C.

In the case of `Fc1ccc(-c2c(-c3ccncc3)n(OCCN3CCOCC3)c3cccnc23)cc1` [compound 3, 3-(4-Fluorophenyl)-1-[2-(morpholin-4-yl)ethoxy]-2-(pyridin-4-yl)-1H-pyrrolo[3,2-b]pyridine], the melting point was 139 to 141 °C. Also, the “% Inhibition (TNF-α content in test group relative to vehicle treated group)” value in the series on TNF-α [1] was 56%. The IC50 at p38 MAP kinase was 221 nM.

In the case of `Fc1ccc(-c2c(-c3ccncc3)n(CCN3CCOCC3)c3cccnc23)cc1` [compound 8, 3-(4-Fluorophenyl)-2-(pyridin-4-yl)-1-[2-(morpholin-4-yl)ethyl]-1H-pyrrolo[3,2-b]-pyridine], the melting point is 171.2 to 173 °C.

Molecule `Fc1ccc(-c2c(-c3ccnc(Cl)n3)oc3cccnc23)cc1` [compound 102, 2-(2-Chloropyrimidin-4-yl)-3-(4-fluorophenyl)-furo[3,2-b]pyridine] yielded a melting point of 224.8 to 225.2 °C.

`Fc1ccc(-c2c(-c3ccncc3)n(OCCN3CCCC3)c3cccnc23)cc1` [compound 5, 3-(4-fluorophenyl)-2-(pyridin-4-yl)-1-[2-(pyrrolidin-1-yl)ethoxy]-1H-pyrrolo[3,2-b]pyridine] returned a melting point of 123 to 129 °C. The IC50 with TNF-α [2] amounted to 120 nM. In addition, on p38 MAP kinase, the IC50 turned out to be 246 nM.

Take `On1c(-c2ccncc2)c(-c2ccc(F)cc2)c2ncccc21` [compound 1, 3-(4-Fluorophenyl)-1-hydroxy-2-(pyridin-4-yl)-1H-pyrrolo[3,2-b]pyridine]: the melting point lay within 225 to 228 °C.

As for `Fc1ccc(-c2c(-c3ccncc3)[nH]c3nccnc23)cc1` [compound 106, 7-(4-Fluorophenyl)-6-(pyridin-4-yl)-5H-pyrrolo[2,3-b]pyrazine], the IC50 worked out at 1100 nM with TNF-α [2] and 120 nM on p38 MAP kinase.
